The values below are quoted from earlier work in patent US20080085301A1, “Method for transdermal administration of antimicrobial medications” (priority 2005, published 2008).

For this series, the system named is Streptococcus pneumoniae. The note with it: based on Streptococcus pneumoniae; in vitro.
`[H]/N=C(/N)N[C@H]1[C@H](O)[C@@H](O)[C@H](O[C@@H]2O[C@@H](C)[C@](O)(C=O)[C@H]2O[C@@H]2O[C@@H](CO)[C@H](O)[C@@H](O)[C@@H]2NC)[C@@H](N/C(N)=N\[H])[C@@H]1O` [Streptomycin]: the “Approximate MIC” value was approximately 2 µg/mL. For `CC(=O)NC[C@H]1CN(c2ccc(N3CCOCC3)c(F)c2)C(=O)O1` [Linezolid], the “Approximate MIC” value was approximately 2 µg/mL. Take `N[C@@H]1CON=C1O` [Cycloserine]: the “Approximate MIC” value is approximately 32 µg/mL.

With `O=C(N[C@H](CO)[C@H](O)c1ccc([N+](=O)[O-])cc1)C(Cl)Cl` [Chloramphenicol], the “Approximate MIC” value is approximately 4 µg/mL.

As to `CCCCCCCCCC(=O)N[C@@H](Cc1c[nH]c2ccccc12)C(=O)N[C@H](CC(N)=O)C(=O)N[C@@H](CC(=O)O)C(=O)N[C@@H]1C(=O)NCC(=O)N[C@@H](CCCN)C(=O)N[C@@H](CC(=O)O)C(=O)N[C@H](C)C(=O)N[C@@H](CC(=O)O)C(=O)NCC(=O)N[C@H](CO)C(=O)N[C@@H]([C@H](C)CC(=O)O)C(=O)N[C@@H](CC(=O)c2ccccc2N)C(=O)O[C@@H]1C` [Daptomycin], the “Approximate MIC” value was approximately 0.5 µg/mL. `C[C@@H](O)[C@H]1C(=O)N2C(C(=O)O)=C(S[C@@H]3CN[C@H](C(=O)N(C)C)C3)[C@H](C)[C@H]12` [Meropenem]: the “Approximate MIC” value was approximately 1 µg/mL. `CN[C@H](CC(C)C)C(=O)N[C@H]1C(=O)N[C@@H](CC(N)=O)C(=O)N[C@H]2C(=O)N[C@H]3C(=O)N[C@H](C(=O)N[C@H](C(=O)O)c4cc(O)cc(O)c4-c4cc3ccc4O)[C@H](O)c3ccc(c(Cl)c3)Oc3cc2cc(c3O[C@@H]2O[C@H](CO)[C@@H](O)[C@H](O)[C@H]2O[C@H]2C[C@](C)(N)[C@H](O)[C@H](C)O2)Oc2ccc(cc2Cl)[C@H]1O` [Vancomycin]: the “Approximate MIC” value was approximately 16 µg/mL. As for `CO[C@H]1/C=C/O[C@@]2(C)Oc3c(C)c(O)c4c(O)c(c(/C=N/N5CCN(C)CC5)c(O)c4c3C2=O)NC(=O)/C(C)=C\C=C\[C@H](C)[C@H](O)[C@@H](C)[C@@H](O)[C@@H](C)[C@H](OC(C)=O)[C@@H]1C` [Rifampin], the “Approximate MIC” value is approximately 0.5 µg/mL.
